Reference: PubChem BioAssay (NCI)
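Grown in 96-well plates, cells were treated for 48 hours with each compound at five concentrations. Insufficient inhibition: endpoint recorded as highest concentration tested. At the TGI there is no net growth.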

Experiments:
Assay in all cases: DTP human tumour cell line panel, 48 h
[1] = tested on: IGROV1 ovarian
[2] = tested on: NCI-H460 lung
[3] = tested on: MOLT-4 leukemia
[4] = tested on: T-47D breast
[5] = tested on: SW-620 colon
[6] = tested on: SR leukemia
[7] = tested on: HS 578T breast
[8] = tested on: NCI/ADR-RES ovarian
[9] = tested on: UACC-62 melanoma
[10] = tested on: BT-549 breast
[11] = tested on: PC-3 prostate
[12] = tested on: OVCAR-8 ovarian
[13] = tested on: RPMI-8226 leukemia
[14] = tested on: SK-MEL-5 melanoma
[15] = tested on: UO-31 renal
[16] = tested on: TK-10 renal
[17] = tested on: OVCAR-5 ovarian
[18] = tested on: SNB-19 CNS
[19] = tested on: HOP-62 NSCLC
[20] = tested on: SK-MEL-28 melanoma
[21] = tested on: RXF 393 renal
[22] = tested on: SK-MEL-2 melanoma
[23] = tested on: OVCAR-4 ovarian
[24] = tested on: ACHN renal
[25] = tested on: SF-539 CNS
[26] = tested on: K-562 leukemia
[27] = tested on: SN12C renal
[28] = tested on: HCC-2998 colon
[29] = tested on: MALME-3M melanoma
[30] = tested on: HOP-92 NSCLC
[31] = tested on: NCI-H23 lung
[32] = tested on: HCT-15 colon
[33] = tested on: MDA-MB-435
[34] = tested on: 786-0 renal
[35] = tested on: MDA-MB-231 breast
[36] = tested on: MDA-N
[37] = tested on: KM12 colon
[38] = tested on: U251 CNS
[39] = tested on: M14 melanoma
[40] = tested on: A498 renal
[41] = tested on: OVCAR-3 ovarian
[42] = tested on: A549 NSCLC
[43] = tested on: SF-295 CNS
[44] = tested on: HT29 colon
[45] = tested on: LOX IMVI melanoma
[46] = tested on: HCT-116 colon
[47] = tested on: CCRF-CEM leukemia
[48] = tested on: NCI-H522 lung
[49] = tested on: SF-268 CNS
[50] = tested on: MCF7 breast
[51] = tested on: EKVX NSCLC
[52] = tested on: CAKI-1 renal
[53] = tested on: DU-145 prostate
[54] = tested on: COLO 205 colon
[55] = tested on: SNB-75 CNS
[56] = tested on: HL-60(TB) leukemia
[57] = tested on: UACC-257 melanoma
[58] = tested on: SK-OV-3 ovarian
[59] = tested on: NCI-H226 lung

O=C(NCCCCCCCCCCCCNC(=O)Nc1cccc2ccccc12)Nc1cccc2ccccc12
TGI [1]: 36.3 µM
TGI [2]: 29.4 µM
TGI [3]: 42.2 µM
TGI [4]: 36.7 µM
TGI [5]: 33.1 µM
TGI [6]: 31.7 µM
TGI [7]: 52.4 µM
TGI [8]: 60.6 µM
TGI [9]: 26.7 µM
TGI [10]: 31.4 µM
TGI [11]: 29.7 µM
TGI [12]: 53.6 µM
TGI [13]: 37.1 µM
TGI [14]: 46.2 µM
TGI [15]: 33.9 µM
TGI [16]: 31.5 µM
TGI [17]: 79.6 µM
TGI [18]: 30.1 µM
TGI [19]: 20.1 µM
TGI [20]: 36.3 µM
TGI [21]: 30.6 µM
TGI [22]: 35.7 µM
TGI [23]: 24.1 µM
TGI [24]: 27.1 µM
TGI [25]: 27 µM
TGI [26]: 50.5 µM
TGI [27]: 31.6 µM
TGI [28]: 27.8 µM
TGI [29]: 34.4 µM
TGI [30]: 25.9 µM
TGI [31]: 31.5 µM
TGI [32]: 36.8 µM
TGI [33]: 33.5 µM
TGI [34]: 32.2 µM
TGI [35]: 35.9 µM
TGI [36]: 31.2 µM
TGI [37]: 33.6 µM
TGI [38]: 31.8 µM
TGI [39]: 43.6 µM
TGI [40]: 31.7 µM
TGI [41]: 30.3 µM
TGI [42]: 32.9 µM
TGI [43]: 27.7 µM
TGI [44]: 40.8 µM
TGI [45]: 34.2 µM
TGI [46]: 34.3 µM
TGI [47]: 33.4 µM
TGI [48]: 28.9 µM
TGI [49]: 31.3 µM
TGI [50]: 35.1 µM
TGI [51]: 43.3 µM
TGI [52]: 31.7 µM
TGI [53]: 70.9 µM
TGI [54]: 44.1 µM
TGI [55]: 32.7 µM
TGI [56]: 37.3 µM

Cc1ccc(OCC2OC(n3cnc4nc(N)nc(Cl)c43)CC2Oc2ccc(C)cc2)cc1 (centres undefined)
TGI [1]: 44.8 µM
TGI [2]: 97 µM
TGI [3]: 52.7 µM
TGI [4]: 34.7 µM
TGI [5]: > 100 µM
TGI [6]: > 100 µM
TGI [7]: 45.6 µM
TGI [57]: > 100 µM
TGI [8]: 47.2 µM
TGI [9]: > 100 µM
TGI [10]: > 100 µM
TGI [11]: 44.6 µM
TGI [12]: 50 µM
TGI [13]: 56.5 µM
TGI [14]: 41.3 µM
TGI [16]: > 100 µM
TGI [17]: 39.7 µM
TGI [18]: 30.4 µM
TGI [19]: 52.6 µM
TGI [20]: > 100 µM
TGI [22]: 37.7 µM
TGI [23]: > 100 µM
TGI [24]: 35 µM
TGI [25]: > 100 µM
TGI [27]: 41.4 µM
TGI [58]: > 100 µM
TGI [28]: 33.6 µM
TGI [29]: 69.2 µM
TGI [30]: 70 µM
TGI [31]: 36.9 µM
TGI [32]: 59.3 µM
TGI [33]: > 100 µM
TGI [34]: > 100 µM
TGI [35]: > 100 µM
TGI [36]: 39.5 µM
TGI [37]: 44 µM
TGI [38]: > 100 µM
TGI [39]: 41.2 µM
TGI [40]: 82.3 µM
TGI [41]: 41 µM
TGI [42]: 58.3 µM
TGI [43]: 84.1 µM
TGI [44]: 71.1 µM
TGI [45]: > 100 µM
TGI [46]: > 100 µM
TGI [47]: > 100 µM
TGI [48]: 47.8 µM
TGI [49]: 44.6 µM
TGI [59]: 47.5 µM
TGI [50]: 49 µM
TGI [51]: 69.4 µM
TGI [52]: 23.6 µM
TGI [53]: 35.9 µM
TGI [54]: 36.4 µM
TGI [55]: 30.4 µM

CCCC(=O)NC(Nc1ccc(S(=O)(=O)Nc2cc(C)on2)cc1)(C(=O)OCC)C(F)(F)F (centres undefined)
TGI [1]: > 100 µM
TGI [3]: > 100 µM
TGI [4]: > 100 µM
TGI [5]: > 100 µM
TGI [6]: > 100 µM
TGI [7]: > 100 µM
TGI [57]: > 100 µM
TGI [8]: > 100 µM
TGI [9]: > 100 µM
TGI [10]: > 100 µM
TGI [11]: > 100 µM
TGI [12]: > 100 µM
TGI [13]: > 100 µM
TGI [14]: > 100 µM
TGI [15]: > 100 µM
TGI [16]: > 100 µM
TGI [17]: > 100 µM
TGI [18]: > 100 µM
TGI [19]: > 100 µM
TGI [20]: > 100 µM
TGI [21]: > 100 µM
TGI [22]: > 100 µM
TGI [23]: > 100 µM
TGI [24]: > 100 µM
TGI [25]: > 100 µM
TGI [26]: > 100 µM
TGI [27]: > 100 µM
TGI [58]: > 100 µM
TGI [28]: > 100 µM
TGI [29]: > 100 µM
TGI [30]: > 100 µM
TGI [31]: > 100 µM
TGI [32]: > 100 µM
TGI [33]: > 100 µM
TGI [34]: > 100 µM
TGI [35]: > 100 µM
TGI [36]: > 100 µM
TGI [37]: > 100 µM
TGI [38]: > 100 µM
TGI [39]: > 100 µM
TGI [41]: > 100 µM
TGI [42]: > 100 µM
TGI [43]: > 100 µM
TGI [44]: > 100 µM
TGI [45]: > 100 µM
TGI [46]: > 100 µM
TGI [47]: > 100 µM
TGI [48]: > 100 µM
TGI [49]: > 100 µM
TGI [59]: > 100 µM
TGI [50]: > 100 µM
TGI [51]: > 100 µM
TGI [52]: > 100 µM
TGI [53]: > 100 µM
TGI [54]: > 100 µM
TGI [55]: > 100 µM
TGI [56]: > 100 µM

CCN(CC)N1C(=O)[N+](CC)(CC)N=C1[O-]
TGI [1]: > 100 µM
TGI [2]: > 100 µM
TGI [3]: > 100 µM
TGI [4]: > 100 µM
TGI [5]: > 100 µM
TGI [6]: > 100 µM
TGI [7]: > 100 µM
TGI [8]: > 100 µM
TGI [9]: > 100 µM
TGI [10]: > 100 µM
TGI [11]: > 100 µM
TGI [12]: > 100 µM
TGI [13]: > 100 µM
TGI [14]: > 100 µM
TGI [15]: > 100 µM
TGI [16]: > 100 µM
TGI [17]: > 100 µM
TGI [18]: > 100 µM
TGI [19]: > 100 µM
TGI [20]: > 100 µM
TGI [22]: > 100 µM
TGI [23]: > 100 µM
TGI [24]: > 100 µM
TGI [25]: > 100 µM
TGI [27]: > 100 µM
TGI [58]: > 100 µM
TGI [28]: > 100 µM
TGI [29]: > 100 µM
TGI [30]: > 100 µM
TGI [31]: > 100 µM
TGI [32]: > 100 µM
TGI [33]: > 100 µM
TGI [34]: > 100 µM
TGI [35]: > 100 µM
TGI [36]: > 100 µM
TGI [37]: > 100 µM
TGI [38]: > 100 µM
TGI [39]: > 100 µM
TGI [40]: > 100 µM
TGI [41]: > 100 µM
TGI [42]: > 100 µM
TGI [43]: > 100 µM
TGI [44]: > 100 µM
TGI [45]: > 100 µM
TGI [46]: > 100 µM
TGI [47]: > 100 µM
TGI [48]: > 100 µM
TGI [49]: > 100 µM
TGI [59]: > 100 µM
TGI [50]: > 100 µM
TGI [51]: > 100 µM
TGI [52]: > 100 µM
TGI [53]: > 100 µM
TGI [54]: > 100 µM
TGI [55]: > 100 µM
TGI [56]: > 100 µM
